In patent US9637491B2, “Pyrazolo[4,3-D]pyrimidines as kinase inhibitors” (Origenis GmbH, priority 2012, dated 2017):

Molecular target: T1, SYK kinase (Homo sapiens, UniProt P43405)
T1 construct: purchased Invitrogen, Carlsbad
Assay: SYK assay (OMNIA Kinase Assay, Invitrogen)
Assay type: biochemical
Settings: SYK Activities; 1 mM ATP, 10 μM Omnia Peptide Substrate Tyr 7, 30° C.
Summary of the method: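 Continuous-read fluorescence kinase assay: SOX-labelled Tyr 7 peptide (10 μM) with 1 mM ATP and 0.2 mM DTT, 30° C, reaction started by adding SYK. Fluorescence (ex 360/em 485 nm) read every 30 s for 30 min. IC50 from sigmoidal fit of reaction velocity versus inhibitor concentration.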

SMILES | IC50 [nM]
COCCn1ccc(Nc2nc(C3CCC3)nc3cn[nH]c23)cc1=O [Example 226, 4-((5-cyclobutyl-1H-pyrazolo[4,3-d]pyrimidin-7-yl)amino)-1-(2-methoxyethyl)pyridin-2(1H)-one] | 100 to 1000
COCCn1ccc(Nc2nc(C3CC3)nc3cn[nH]c23)cc1=O [Example 231, 4-((5-cyclopropyl-1H-pyrazolo[4,3-d]pyrimidin-7-yl)amino)-1-(2-methoxyethyl)pyridin-2(1H)-one] | 100 to 1000
c1nn(C2CCOCC2)cc1Nc1nc(C2CC2)nc2cn[nH]c12 [Example 118, 5-cyclopropyl-N-(1-(tetrahydro-2H-pyran-4-yl)-1H-pyrazol-4-yl)-1H-pyrazolo[4,3-d]pyrimidin-7-amine] | 10 to 100
CC(C)n1cc(Nc2nc(-c3ccoc3)nc3cn[nH]c23)cn1 [Example 220, 5-(furan-3-yl)-N-(1-isopropyl-1H-pyrazol-4-yl)-1H-pyrazolo[4,3-d]pyrimidin-7-amine] | < 10
Clc1c(Nc2nc(C3CCC3)nc3cn[nH]c23)cnn1C1CCNCC1 [Example 364, N-(5-chloro-1-(piperidin-4-yl)-1H-pyrazol-4-yl)-5-cyclobutyl-1H-pyrazolo[4,3-d]pyrimidin-7-amine] | 100 to 1000
c1nn(C2CCOCC2)cc1Nc1nc(C2CCC2)nc2cn[nH]c12 [Example 119, 5-cyclobutyl-N-(1-(tetrahydro-2H-pyran-4-yl)-1H-pyrazol-4-yl)-1H-pyrazolo[4,3-d]pyrimidin-7-amine] | 10 to 100
COc1ccc(Nc2nc(-c3ccno3)nc3cn[nH]c23)cc1OC [Example 68, N-(3,4-dimethoxyphenyl)-5-(isoxazol-5-yl)-1H-pyrazolo[4,3-d]pyrimidin-7-amine] | 100 to 1000
CN1CCC(n2cc(Nc3nc(-c4ccc5cn[nH]c5c4)nc4cn[nH]c34)cn2)CC1 [Example 132, 5-(1H-indazol-6-yl)-N-(1-(1-methylpiperidin-4-yl)-1H-pyrazol-4-yl)-1H-pyrazolo[4,3-d]pyrimidin-7-amine] | 10 to 100
c1cc(N2CCOCC2)ccc1Nc1nc(-c2cn[nH]c2)nc2cn[nH]c12 [Example 394, N-(4-morpholinophenyl)-5-(1H-pyrazol-4-yl)-1H-pyrazolo[4,3-d]pyrimidin-7-amine] | 10 to 100
CC(=O)N1CCC(n2cc(Nc3nc(-c4ccoc4)nc4cn[nH]c34)cn2)CC1 [Example 200, 1-(4-(4-((5-(furan-3-yl)-1H-pyrazolo[4,3-d]pyrimidin-7-yl)amino)-1H-pyrazol-1-yl)piperidin-1-yl)ethan-1-one] | < 10
COc1ccc(Nc2nc(-c3ccccc3NS(C)(=O)=O)nc3cn[nH]c23)cc1OC [Example 2, N-(2-(7-((3,4-dimethoxyphenyl)amino)-1H-pyrazolo[4,3-d]pyrimidin-5-yl)phenyl)methanesulfonamide] | 100 to 1000
CC(=O)N1CCN(c2ccc(Nc3nc(C4CC4)nc4cn[nH]c34)cn2)CC1 [Example 237, 1-(4-(5-((5-cyclopropyl-1H-pyrazolo[4,3-d]pyrimidin-7-yl)amino)pyridin-2-yl)piperazin-1-yl)ethan-1-one] | 10 to 100

Further lines, results first:

IC50 [nM] | SMILES
10 to 100 | NS(=O)(=O)c1cccc(-c2nc(Nc3cnn(CCO)c3)c3[nH]ncc3n2)c1 [Example 526, 3-(7-((1-(2-hydroxyethyl)-1H-pyrazol-4-yl)amino)-1H-pyrazolo[4,3-d]pyrimidin-5-yl)benzenesulfonamide]
10 to 100 | OCCN1CCN(c2ccc(Nc3nc(-c4ccc5cn[nH]c5c4)nc4cn[nH]c34)cc2)CC1 [Example 422, 2-(4-(4-((5-(1H-indazol-6-yl)-1H-pyrazolo[4,3-d]pyrimidin-7-yl)amino)phenyl)piperazin-1-yl)ethan-1-ol]
100 to 1000 | CN(C)C(=O)Cn1cc(Nc2nc(-c3ccco3)nc3cn[nH]c23)cn1 [Example 452, 2-(4-((5-(furan-2-yl)-1H-pyrazolo[4,3-d]pyrimidin-7-yl)amino)-1H-pyrazol-1-yl)-N,N-dimethylacetamide]
100 to 1000 | CN1CCN(C(=O)c2ccc(Nc3nc(-c4c(F)cccc4F)nc4cn[nH]c34)cc2)CC1 [Example 500, (4-((5-(2,6-difluorophenyl)-1H-pyrazolo[4,3-d]pyrimidin-7-yl)amino)phenyl)(4-methylpiperazin-1-yl)methanone]
100 to 1000 | CC(C(=O)O)n1cc(Nc2nc(C3CC3)nc3cn[nH]c23)cn1 (stereo not drawn) [Example 504, 2-(4-((5-cyclopropyl-1H-pyrazolo[4,3-d]pyrimidin-7-yl)amino)-1H-pyrazol-1-yl)propanoic acid]
10 to 100 | CC(C)Cn1cc(Nc2nc(-c3cccs3)nc3cn[nH]c23)cn1 [Example 432, N-(1-isobutyl-1H-pyrazol-4-yl)-5-(thiophen-2-yl)-1H-pyrazolo[4,3-d]pyrimidin-7-amine]
< 10 | c1nn(C2CC2)cc1Nc1nc(-c2ccc3cn[nH]c3c2)nc2cn[nH]c12 [Example 418, N-(1-cyclopropyl-1H-pyrazol-4-yl)-5-(1H-indazol-6-yl)-1H-pyrazolo[4,3-d]pyrimidin-7-amine]
10 to 100 | COCCCn1cc(Nc2nc(-c3ccc4cn[nH]c4c3)nc3cn[nH]c23)cn1 [Example 419, 5-(1H-indazol-6-yl)-N-(1-(3-methoxypropyl)-1H-pyrazol-4-yl)-1H-pyrazolo[4,3-d]pyrimidin-7-amine]
10 to 100 | CN1CCN(c2ccc(Nc3nc(-c4c(F)cccc4F)nc4cn[nH]c34)cc2Cl)CC1 [Example 539, N-(3-chloro-4-(4-methylpiperazin-1-yl)phenyl)-5-(2,6-difluorophenyl)-1H-pyrazolo[4,3-d]pyrimidin-7-amine]
